Results: patent publication US20250145606A1 (Arcus Biosciences, Inc., priority 2023, published 2025)

Tests used:
Conditions in all cases: biochemical, HTRF KinEASE-TK
PDGFRα = PDGFRα (Homo sapiens (Human), UniProt P16234); assay: Inhibition of PDGFRα kinase activity (HTRF KinEASE-TK)
Procedure: (§1) Inhibition of c-Kit, PDGFRα, PDGFRβ, CSFIR and FLT3 Kinase Activity
(§2) Compounds were evaluated to determine the potency with which they inhibit the kinase activity of the following panel of tyrosine kinases: c-Kit (SignalChem, Product #: K06-11BG), PDGFRα (SignalChem, Product #: P12-18G), PDGFRβ (SignalChem, Product #: P13-11G), CSFIR (SignalChem, Product #: C74-11G) and FLT3 (Invitrogen, Product #: PR4666C). Activity was determined as a function of phosphorylated biotinylated TK peptide generated by the transfer of phosphate from ATP as measured by the use of the HTRF KinEASE-TK assay kit (Cisbio, Product #: 62TKOPEJ). Levels of phosphorylated biotinylated TK peptide (Part 61TKOBLC of KinEASE assay kit) are quantified by its capture by phosphor-TK-Antibody-Cryptate (Part of KinEASE assay kit) and XL665-labeled Streptavidin (Part 610SAXLG of KinEASE assay kit) followed by measurement of Time-Resolved Fluorescence Resonance Energy Transfer (TR-FRET) signal. On the day of the assay, compounds were solubilized in DMSO and dispensed into a 384-well white Opti-plate (PerkinElmer, catalog #6007290) to generate a 22 point 1:2 titration. Enzyme solution was prepared for each of the tyrosine kinases in 50 mM HEPES, pH 7.4, 5 mM MgCl2 for c-Kit or 10 mM MgCl2 for FLT3, CSFIR, PDGFRa and PDGFRβ, 2 mM MnCl2, 0.01% Brij-35 and 0.01% BSA. Working enzyme concentrations were prepared for c-Kit at 2 nM (2×), PDGFRa and PDGFRß at 10 nM (2×), CSFIR at 2 nM (2×) and FLT3 at 0.4 nM (2×). Five microliters of enzyme dilution of each tyrosine kinase were added to their respective 384-well white Opti-plate pre-dispensed with compound and allowed to incubate for 1 h at rt. Utilizing the same enzyme buffer recipe, 2x substrate mixes were prepared for each enzyme as follows: For c-Kit, 1.6 μM (2×) TK substrate and 16 μM (2×) ATP (Promega, catalog #V915). For PDGFRα, 3.2 μM TK substrate and 1 μM ATP. For PDGFRβ, 3.2 μM TK substrate and 40 μM ATP. For CSFIR, […] TK substrate and 20 μM ATP. For FLT3, 3.2 μM TK substrate and 100 μM ATP. Reactions were initiated by addition of 5 μL of the respective 2x substrate mix to each well of the plates containing the respective tyrosine kinase enzymes and were allowed to proceed for 120 minutes at rt, except for FLT3, the reaction time is 45 min. Following the reaction, 10 μL of detection mix consisting of 0.2 μM (2×) of Streptavidin-XL665 and 2 μM (2×) of TK-Antibody-Cryptate prepared in detection buffer (Part 62SDBRDF of KinEASE assay kit) was added and then allowed to incubate for 60 min. The TR-FRET signal was quantified by measuring the ratio of emission at 665 nm to 620 nm after excitation at 320 nm by reading on a PerkinElmer Envision multimode reader. Compound potencies (IC50 values) were determined using a standard 4-parameter non-linear regression fit.

CSF1R = CSF1R (Homo sapiens (Human), UniProt P07333); assay: Inhibition of CSF1R kinase activity (HTRF KinEASE-TK)
Chain of CSF1R (P07333 20-972): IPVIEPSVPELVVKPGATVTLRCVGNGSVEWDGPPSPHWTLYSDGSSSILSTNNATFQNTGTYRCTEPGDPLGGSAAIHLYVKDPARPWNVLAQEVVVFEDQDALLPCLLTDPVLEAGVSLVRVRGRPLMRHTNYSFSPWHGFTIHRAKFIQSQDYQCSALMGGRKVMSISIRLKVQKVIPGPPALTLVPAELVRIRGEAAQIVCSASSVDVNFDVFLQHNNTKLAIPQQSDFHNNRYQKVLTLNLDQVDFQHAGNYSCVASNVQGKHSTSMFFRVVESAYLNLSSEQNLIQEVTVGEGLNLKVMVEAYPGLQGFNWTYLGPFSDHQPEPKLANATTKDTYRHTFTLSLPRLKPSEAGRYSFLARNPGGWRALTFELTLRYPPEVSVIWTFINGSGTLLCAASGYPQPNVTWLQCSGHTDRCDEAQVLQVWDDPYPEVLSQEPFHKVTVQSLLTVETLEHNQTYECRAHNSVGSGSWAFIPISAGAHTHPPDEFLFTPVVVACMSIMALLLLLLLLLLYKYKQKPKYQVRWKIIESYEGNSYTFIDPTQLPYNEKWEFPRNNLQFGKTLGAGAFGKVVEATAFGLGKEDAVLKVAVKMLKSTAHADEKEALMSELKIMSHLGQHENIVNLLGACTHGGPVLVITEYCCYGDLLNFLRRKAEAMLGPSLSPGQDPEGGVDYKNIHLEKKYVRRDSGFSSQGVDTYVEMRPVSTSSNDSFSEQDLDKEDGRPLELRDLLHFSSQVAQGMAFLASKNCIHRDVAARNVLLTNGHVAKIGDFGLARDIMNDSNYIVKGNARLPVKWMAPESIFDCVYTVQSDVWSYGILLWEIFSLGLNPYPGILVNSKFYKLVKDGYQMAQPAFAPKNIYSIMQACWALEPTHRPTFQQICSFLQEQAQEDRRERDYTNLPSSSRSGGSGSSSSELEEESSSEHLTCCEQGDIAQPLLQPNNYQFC
Procedure: as §1, §2

PDGFRβ = PDGFRβ (Homo sapiens (Human), UniProt P09619); assay: Inhibition of PDGFRβ kinase activity (HTRF KinEASE-TK)
Chain of PDGFRβ (P09619 33-1106): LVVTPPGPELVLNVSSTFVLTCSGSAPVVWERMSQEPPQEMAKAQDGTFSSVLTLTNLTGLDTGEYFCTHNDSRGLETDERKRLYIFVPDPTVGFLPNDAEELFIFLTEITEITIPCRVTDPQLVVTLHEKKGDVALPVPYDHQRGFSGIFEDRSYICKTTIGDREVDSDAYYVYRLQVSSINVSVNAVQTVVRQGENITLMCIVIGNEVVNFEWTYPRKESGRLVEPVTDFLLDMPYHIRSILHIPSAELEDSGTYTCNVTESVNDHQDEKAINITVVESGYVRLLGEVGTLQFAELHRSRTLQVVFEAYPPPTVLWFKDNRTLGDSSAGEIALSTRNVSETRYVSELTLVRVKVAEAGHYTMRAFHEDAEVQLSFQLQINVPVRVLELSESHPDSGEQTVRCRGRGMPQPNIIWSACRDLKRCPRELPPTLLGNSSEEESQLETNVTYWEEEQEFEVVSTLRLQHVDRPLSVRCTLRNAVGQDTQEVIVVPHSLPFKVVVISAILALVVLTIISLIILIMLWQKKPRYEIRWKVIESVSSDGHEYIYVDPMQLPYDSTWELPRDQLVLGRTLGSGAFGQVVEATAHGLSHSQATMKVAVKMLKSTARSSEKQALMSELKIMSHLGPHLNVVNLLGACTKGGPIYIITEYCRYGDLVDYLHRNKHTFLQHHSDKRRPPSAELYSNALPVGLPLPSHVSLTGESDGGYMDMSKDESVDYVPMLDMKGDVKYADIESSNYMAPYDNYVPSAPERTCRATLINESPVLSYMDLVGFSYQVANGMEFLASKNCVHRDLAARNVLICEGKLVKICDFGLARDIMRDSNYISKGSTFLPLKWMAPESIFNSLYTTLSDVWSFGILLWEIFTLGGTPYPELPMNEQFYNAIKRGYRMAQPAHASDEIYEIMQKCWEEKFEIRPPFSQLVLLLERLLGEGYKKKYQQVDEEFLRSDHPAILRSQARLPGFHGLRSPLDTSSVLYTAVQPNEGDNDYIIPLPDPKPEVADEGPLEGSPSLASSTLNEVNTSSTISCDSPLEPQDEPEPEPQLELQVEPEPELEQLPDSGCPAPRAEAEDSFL
Procedure: as §1, §2

c-Kit = c-Kit (Homo sapiens (Human), UniProt P10721); assay: Inhibition of c-Kit kinase activity (HTRF KinEASE-TK); assay type: biochemical
Chain of c-Kit (P10721 26-976): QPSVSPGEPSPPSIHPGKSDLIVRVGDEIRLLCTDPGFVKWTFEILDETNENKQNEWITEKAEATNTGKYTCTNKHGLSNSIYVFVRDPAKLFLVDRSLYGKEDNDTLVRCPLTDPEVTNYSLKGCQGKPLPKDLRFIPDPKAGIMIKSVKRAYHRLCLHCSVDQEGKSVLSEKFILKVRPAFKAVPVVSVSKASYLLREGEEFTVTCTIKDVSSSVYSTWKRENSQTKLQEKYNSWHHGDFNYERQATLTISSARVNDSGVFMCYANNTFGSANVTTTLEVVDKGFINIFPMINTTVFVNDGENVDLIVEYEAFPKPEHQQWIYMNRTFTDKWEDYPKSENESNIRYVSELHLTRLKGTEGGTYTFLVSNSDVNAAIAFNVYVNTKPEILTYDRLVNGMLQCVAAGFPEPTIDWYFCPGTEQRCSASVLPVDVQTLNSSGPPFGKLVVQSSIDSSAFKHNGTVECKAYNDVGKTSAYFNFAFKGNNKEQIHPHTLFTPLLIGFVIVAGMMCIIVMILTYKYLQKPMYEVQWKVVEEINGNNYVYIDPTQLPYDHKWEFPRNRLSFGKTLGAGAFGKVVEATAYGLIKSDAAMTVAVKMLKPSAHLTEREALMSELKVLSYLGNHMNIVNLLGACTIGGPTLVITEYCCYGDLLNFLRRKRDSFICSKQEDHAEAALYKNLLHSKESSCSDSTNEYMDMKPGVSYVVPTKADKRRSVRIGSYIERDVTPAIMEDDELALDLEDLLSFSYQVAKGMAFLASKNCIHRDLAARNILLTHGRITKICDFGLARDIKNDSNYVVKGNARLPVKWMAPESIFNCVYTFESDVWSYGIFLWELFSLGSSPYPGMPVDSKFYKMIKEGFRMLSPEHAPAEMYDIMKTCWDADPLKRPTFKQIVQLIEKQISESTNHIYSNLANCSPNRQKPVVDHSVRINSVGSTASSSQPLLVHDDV
Procedure: as §1, §2

Chain of PDGFRα (P16234 24-1089): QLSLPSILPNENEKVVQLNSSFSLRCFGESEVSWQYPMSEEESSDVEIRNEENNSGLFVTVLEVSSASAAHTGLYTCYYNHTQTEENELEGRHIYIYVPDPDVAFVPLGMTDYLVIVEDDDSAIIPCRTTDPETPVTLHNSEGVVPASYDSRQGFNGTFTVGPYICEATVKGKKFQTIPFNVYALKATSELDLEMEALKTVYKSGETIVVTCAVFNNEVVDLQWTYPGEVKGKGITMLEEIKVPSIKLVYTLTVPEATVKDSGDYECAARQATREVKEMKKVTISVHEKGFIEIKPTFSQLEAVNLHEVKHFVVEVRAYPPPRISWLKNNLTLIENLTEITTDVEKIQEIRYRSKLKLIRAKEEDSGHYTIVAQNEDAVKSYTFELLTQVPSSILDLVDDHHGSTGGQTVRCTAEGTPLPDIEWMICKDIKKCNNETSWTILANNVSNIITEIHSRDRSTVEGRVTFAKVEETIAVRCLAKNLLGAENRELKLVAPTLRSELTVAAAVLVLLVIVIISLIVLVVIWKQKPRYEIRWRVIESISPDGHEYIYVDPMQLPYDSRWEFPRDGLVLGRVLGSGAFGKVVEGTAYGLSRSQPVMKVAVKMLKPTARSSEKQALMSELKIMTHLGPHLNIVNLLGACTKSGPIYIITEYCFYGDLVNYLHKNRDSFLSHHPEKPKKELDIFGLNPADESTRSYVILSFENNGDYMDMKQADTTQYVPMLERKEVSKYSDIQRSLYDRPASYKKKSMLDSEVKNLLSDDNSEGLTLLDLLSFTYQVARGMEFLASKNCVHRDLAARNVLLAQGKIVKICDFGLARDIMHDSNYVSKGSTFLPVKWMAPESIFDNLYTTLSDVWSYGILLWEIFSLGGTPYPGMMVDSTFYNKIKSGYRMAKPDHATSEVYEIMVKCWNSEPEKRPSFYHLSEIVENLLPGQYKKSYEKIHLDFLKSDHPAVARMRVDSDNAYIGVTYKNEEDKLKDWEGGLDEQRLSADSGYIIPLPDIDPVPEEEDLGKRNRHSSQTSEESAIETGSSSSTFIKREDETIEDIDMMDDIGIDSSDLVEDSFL

Row | SMILES | IC50 (PDGFRα) [nM] | IC50 (CSF1R) [nM] | IC50 (PDGFRβ) [nM] | IC50 (c-Kit) [nM]
1 | COCc1ccc(NC(=O)c2cc(NC(=O)c3cnc(C)s3)c(C)cc2F)nc1 [Example 37, N-[4-fluoro-5-[[5-(methoxymethyl)pyridin-2-yl]carbamoyl]-2-methylphenyl]-2-methyl-1,3-thiazole-5-carboxamide] | > 1000 | > 1000 | > 1000 | 100 to 1000
2 | Cc1ncc(C(=O)Nc2cc(C(=O)Nc3cnc(C4CC4)nc3)c(F)cc2C)s1 [Example 42, N-[5-[(2-cyclopropylpyrimidin-5-yl)carbamoyl]-4-fluoro-2-methylphenyl]-2-methyl-1,3-thiazole-5-carboxamide] | > 1000 | > 1000 | > 1000 | < 100
3 | Cc1cc(F)c(C(=O)Nc2ncn(C)n2)cc1NC(=O)c1cnc(N)s1 [Example 174, 2-Amino-N-[4-fluoro-2-methyl-5-[(1-methyl-1,2,4-triazol-3-yl)carbamoyl]phenyl]-1,3-thiazole-5-carboxamide] | > 1000 | > 1000 | > 1000 | 100 to 1000
4 | Cc1cc(F)c(C(=O)Nc2ccc3c(c2)C(C)(C)C(=O)N3)cc1NC(=O)c1cnc(N)s1 [Example 184, 2-Amino-N-[5-[(3,3-dimethyl-2-oxo-1H-indol-5-yl)carbamoyl]-4-fluoro-2-methylphenyl]-1,3-thiazole-5-carboxamide] | < 100 | 100 to 1000 | < 100 | < 100
5 | Cc1cc(F)c(C(=O)Nc2cc(C3CC3)[nH]n2)cc1NC(=O)c1cnc(N)s1 [Example 177, 2-Amino-N-[5-[(5-cyclopropyl-1H-pyrazol-3-yl)carbamoyl]-4-fluoro-2-methylphenyl]-1,3-thiazole-5-carboxamide] | 100 to 1000 | 100 to 1000 | 100 to 1000 | < 100
6 | Cc1cc(F)c(C(=O)Nc2ccc(OC3CC3)cn2)cc1NC(=O)c1cnc(C2CC2)s1 [Example 60, 2-Cyclopropyl-N-[5-[(5-cyclopropyloxypyridin-2-yl)carbamoyl]-4-fluoro-2-methylphenyl]-1,3-thiazole-5-carboxamide] | > 1000 | > 1000 | > 1000 | 100 to 1000
7 | Cc1cc(F)c(C(=O)Nc2nc3c(s2)COCC3)cc1NC(=O)c1cnc(N)s1 [Example 145, 2-Amino-N-[5-(6,7-dihydro-4H-pyrano[4,3-d][1,3]thiazol-2-ylcarbamoyl)-4-fluoro-2-methylphenyl]-1,3-thiazole-5-carboxamide] | > 1000 | 100 to 1000 | 100 to 1000 | < 100
8 | Cc1cc(F)c(C(=O)Nc2ccn(C(C)(C)C)n2)cc1NC(=O)c1cnc(N)s1 [Example 141, 2-Amino-N-[5-[(1-tert-butylpyrazol-3-yl)carbamoyl]-4-fluoro-2-methylphenyl]-1,3-thiazole-5-carboxamide] | < 100 | 100 to 1000 | < 100 | < 100
9 | Cc1cc(F)c(C(=O)NCc2ccn(C(C)C)n2)cc1NC(=O)c1cnc(N)s1 [Example 253, 2-Amino-N-[4-fluoro-2-methyl-5-[(1-propan-2-ylpyrazol-3-yl)methylcarbamoyl]phenyl]-1,3-thiazole-5-carboxamide] | 100 to 1000 | > 1000 | 100 to 1000 | < 100
10 | Cc1cc(F)c(C(=O)Nc2ccc(S(C)(=O)=O)cn2)cc1NC(=O)c1cnc(N)s1 [Example 116, 2-Amino-N-[4-fluoro-2-methyl-5-[(5-methylsulfonylpyridin-2-yl)carbamoyl]phenyl]-1,3-thiazole-5-carboxamide] | > 1000 | 100 to 1000 | 100 to 1000 | < 100
11 | Cc1cc(F)c(C(=O)N[C@H]2C[C@@H](C#N)C2)cc1NC(=O)c1cnc(N)s1 [Example 126, 2-Amino-N-[5-[(3-cyanocyclobutyl)carbamoyl]-4-fluoro-2-methylphenyl]-1,3-thiazole-5-carboxamide] | 100 to 1000 | > 1000 | > 1000 | < 100
12 | Cc1cc(F)c(C(=O)N[C@H]2C[C@@H](C(N)=O)C2)cc1NC(=O)c1cnc(N)s1 [Example 127, 2-Amino-N-[5-[(3-carbamoylcyclobutyl)carbamoyl]-4-fluoro-2-methylphenyl]-1,3-thiazole-5-carboxamide] | > 1000 | > 1000 | > 1000 | 100 to 1000
13 | Cc1c(F)cc(C(=O)Nc2ccc(OC3CC3)cn2)cc1NC(=O)c1cnc(N)s1 [Example 243, 2-Amino-N-[5-[(5-cyclopropyloxypyridin-2-yl)carbamoyl]-3-fluoro-2-methylphenyl]-1,3-thiazole-5-carboxamide] | < 100 | < 100 | < 100 | < 100
14 | Cc1ncc(C(=O)Nc2cc(C(=O)NCC3(F)CCC3)c(F)cc2C)s1 [Example 68, N-[4-Fluoro-5-[(1-fluorocyclobutyl)methylcarbamoyl]-2-methylphenyl]-2-methyl-1,3-thiazole-5-carboxamide] | > 1000 | > 1000 | > 1000 | 100 to 1000
15 | Cc1cc(F)c(C(=O)NC2CN(C(=O)C3CC3)C2)cc1NC(=O)c1cnc(N)s1 [Example 121, 2-Amino-N-[5-[[1-(cyclopropanecarbonyl)azetidin-3-yl]carbamoyl]-4-fluoro-2-methylphenyl]-1,3-thiazole-5-carboxamide] | > 1000 | > 1000 | > 1000 | < 100
16 | Cc1cc(F)c(C(=O)Nc2nc(C3CC3)cs2)cc1NC(=O)c1cnc(N)s1 [Example 170, 2-Amino-N-[5-[(4-cyclopropyl-1,3-thiazol-2-yl)carbamoyl]-4-fluoro-2-methylphenyl]-1,3-thiazole-5-carboxamide] | > 1000 | 100 to 1000 | 100 to 1000 | < 100
17 | Cc1ncc(C(=O)Nc2cc(C(=O)NCCCN3CCOCC3)c(F)cc2C)s1 [Example 57, N-[4-Fluoro-2-methyl-5-(3-morpholin-4-ylpropylcarbamoyl)phenyl]-2-methyl-1,3-thiazole-5-carboxamide] | > 1000 | > 1000 | > 1000 | 100 to 1000
18 | Cc1cc(F)c(C(=O)Nc2nnc(C3CC3)s2)cc1NC(=O)c1cnc(N)s1 [Example 175, 2-Amino-N-[5-[(5-cyclopropyl-1,3,4-thiadiazol-2-yl)carbamoyl]-4-fluoro-2-methylphenyl]-1,3-thiazole-5-carboxamide] | 100 to 1000 | < 100 | < 100 | < 100
19 | CCc1cc(F)c(C(=O)Nc2ccc(OC3CC3)cn2)cc1NC(=O)c1cnc(N)s1 [Example 237, 2-Amino-N-[5-[(5-cyclopropyloxypyridin-2-yl)carbamoyl]-2-ethyl-4-fluorophenyl]-1,3-thiazole-5-carboxamide] | > 1000 | > 1000 | > 1000 | 100 to 1000
20 | Cc1cc(F)c(C(=O)Nc2nc(C)n(C)n2)cc1NC(=O)c1cnc(N)s1 [Example 173, 2-Amino-N-[5-[(1,5-dimethyl-1,2,4-triazol-3-yl)carbamoyl]-4-fluoro-2-methylphenyl]-1,3-thiazole-5-carboxamide] | > 1000 | > 1000 | > 1000 | 100 to 1000
21 | Cc1cc(F)c(C(=O)Nc2ccc(CN3CCN(C)CC3)cn2)cc1NC(=O)c1cnc(N)s1 [Example 247, 2-Amino-N-[4-fluoro-2-methyl-5-[[5-[(4-methylpiperazin-1-yl)methyl]pyridin-2-yl]carbamoyl]phenyl]-1,3-thiazole-5-carboxamide] | > 1000 | 100 to 1000 | 100 to 1000 | < 100
